{"source": "ChEMBL document CHEMBL1153336", "about": "“Cytotoxicity of cardenolides and cardenolide glycosides from Asclepias curassavica” (Bioorg Med Chem Lett, 2009)", "key": {"HepG2": {"test_system": "HepG2", "experiment": "Cytotoxicity against human HepG2 cells by MTT assay", "format": "functional, cell-based"}, "Raji": {"test_system": "Raji", "experiment": "Cytotoxicity against human Raji cells by MTT assay", "format": "functional, cell-based"}}}
{"smiles": "C[C@@H]1C[C@H](O)[C@]2(O)O[C@@H]3C[C@@]4(C=O)[C@@H](CC[C@@H]5[C@@H]4C[C@@H](O)[C@]4(C)[C@@H](C6=CC(=O)OC6)CC[C@]54O)C[C@H]3O[C@@H]2O1", "values": [{"measurement": "IC50", "setting": "HepG2", "result": 690, "unit": "nM"}, {"measurement": "IC50", "setting": "Raji", "result": 1460, "unit": "nM"}]}
{"smiles": "CC(=O)O[C@@H]1C[C@]2(O)[C@@H]3CC[C@H]4C[C@H]5O[C@@H]6O[C@H](C)C[C@H](O)[C@]6(O)O[C@@H]5C[C@]4(C=O)[C@H]3CC[C@]2(C)[C@H]1C1=CC(=O)OC1", "values": [{"measurement": "IC50", "setting": "HepG2", "result": 1340, "unit": "nM"}, {"measurement": "IC50", "setting": "Raji", "result": 3540, "unit": "nM"}]}
{"smiles": "CC(=O)O[C@H]1C[C@@H](C)O[C@H]2O[C@@H]3C[C@@H]4CC[C@@H]5[C@H](CC[C@]6(C)[C@@H](C7=CC(=O)OC7)[C@H](OC(C)=O)C[C@]56O)[C@@]4(C=O)C[C@H]3O[C@]21O", "values": [{"measurement": "IC50", "setting": "HepG2", "result": 760, "unit": "nM"}, {"measurement": "IC50", "setting": "Raji", "result": 3210, "unit": "nM"}]}
{"smiles": "CC(=O)O[C@H]1C[C@@H](C)O[C@H]2O[C@@H]3C[C@@H]4CC[C@@H]5[C@H](CC[C@]6(C)[C@@H](C7=CC(=O)OC7)[C@H](O)C[C@]56O)[C@@]4(C=O)C[C@H]3O[C@]21O", "values": [{"measurement": "IC50", "setting": "HepG2", "result": 3030, "unit": "nM"}, {"measurement": "IC50", "setting": "Raji", "result": 50, "unit": "nM"}]}
{"smiles": "CO[C@]12CC[C@@]3(CO1)[C@@H](CC[C@@H]1[C@@H]3C[C@@H](O)[C@]3(C)[C@@H](C4=CC(=O)OC4)CC[C@]13O)C2", "values": [{"measurement": "IC50", "setting": "HepG2", "result": 89900, "unit": "nM"}, {"measurement": "IC50", "setting": "Raji", "result": 64700, "unit": "nM"}]}
{"smiles": "COc1cc(/C=C/C(=O)OC[C@H]2O[C@@H](O[C@H]3CC[C@@]4(C)[C@@H](CC[C@@H]5[C@@H]4CC[C@]4(C)[C@@H](C6=CC(=O)OC6)CC[C@]54O)C3)[C@H](O)[C@@H](O)[C@@H]2O)ccc1O", "values": [{"measurement": "IC50", "setting": "HepG2", "result": "> 100000", "unit": "nM"}, {"measurement": "IC50", "setting": "Raji", "result": 41100, "unit": "nM"}]}
{"smiles": "C[C@]12[C@H](O)C[C@H]3[C@@H](CC[C@H]4C[C@@H](O)CC[C@@]43CO)[C@@]1(O)CC[C@@H]2C1=CC(=O)OC1", "values": [{"measurement": "IC50", "setting": "HepG2", "result": 5170, "unit": "nM"}, {"measurement": "IC50", "setting": "Raji", "result": 14600, "unit": "nM"}]}
{"smiles": "CC(=O)O[C@H]1C[C@@H](C)O[C@H]2O[C@@H]3C[C@@H]4CC[C@@H]5[C@H](CC[C@]6(C)[C@@H](C7=CC(=O)OC7)CC[C@]56O)[C@@]4(C=O)C[C@H]3O[C@]21O", "note": "[ASCLEPIN]", "values": [{"measurement": "IC50", "setting": "HepG2", "result": 20, "unit": "nM"}, {"measurement": "IC50", "setting": "Raji", "result": 20, "unit": "nM"}]}
{"smiles": "C[C@]12CC[C@H]3[C@@H](CC[C@H]4C[C@@H](O)[C@H](O)C[C@@]43C=O)[C@@]1(O)CC[C@@H]2C1=CC(=O)OC1", "note": "[CALOTROPAGENIN]", "values": [{"measurement": "IC50", "setting": "HepG2", "result": 56600, "unit": "nM"}, {"measurement": "IC50", "setting": "Raji", "result": 24300, "unit": "nM"}]}
{"smiles": "C[C@@H]1C[C@H](O)[C@]2(O)O[C@@H]3C[C@@]4(C=O)[C@@H](CC[C@@H]5[C@@H]4CC[C@]4(C)[C@@H](C6=CC(=O)OC6)CC[C@]54O)C[C@H]3O[C@@H]2O1", "note": "[CALOTROPIN]", "values": [{"measurement": "IC50", "setting": "HepG2", "result": 40, "unit": "nM"}, {"measurement": "IC50", "setting": "Raji", "result": 20, "unit": "nM"}]}
{"smiles": "C[C@]12CC[C@H]3[C@@H](CC[C@H]4C[C@@H](O)CC[C@@]43CO)[C@@]1(O)CC[C@@H]2C1=CC(=O)OC1", "note": "[COROGLAUCIGENIN]", "values": [{"measurement": "IC50", "setting": "HepG2", "result": 6700, "unit": "nM"}, {"measurement": "IC50", "setting": "Raji", "result": 140, "unit": "nM"}]}
{"smiles": "C[C@]12CC[C@H](O[C@@H]3O[C@H](CO)[C@@H](O)[C@H](O)[C@H]3O)C[C@@H]1CC[C@@H]1[C@@H]2CC[C@]2(C)[C@@H](C3=CC(=O)OC3)CC[C@]12O", "note": "[DESGLUCOUZARIN]", "values": [{"measurement": "IC50", "setting": "HepG2", "result": 8530, "unit": "nM"}, {"measurement": "IC50", "setting": "Raji", "result": 750, "unit": "nM"}]}
{"smiles": "C[C@@H]1CC(=O)[C@]2(O)O[C@@H]3C[C@@]4(C=O)[C@@H](CC[C@@H]5[C@@H]4CC[C@]4(C)[C@@H](C6=CC(=O)OC6)CC[C@]54O)C[C@H]3O[C@@H]2O1", "note": "[USCHARIDIN]", "values": [{"measurement": "IC50", "setting": "HepG2", "result": 380, "unit": "nM"}, {"measurement": "IC50", "setting": "Raji", "result": 20, "unit": "nM"}]}
